Test results published in ChEMBL document CHEMBL3352142, “Discovery of a new class of cinnamyl-triazole as potent and selective inhibitors of aromatase (cytochrome P450 19A1)” (Bioorg Med Chem Lett, 2014).

Key:
Aromatase [1] = biological target: T1, Aromatase (Homo sapiens, UniProt P11511); test: Irreversible inhibition of recombinant human CYP19A1 assessed as inhibition of DBF conversion to fluorescein by-product by fluorometry
T1 sequence (P11511 whole entry): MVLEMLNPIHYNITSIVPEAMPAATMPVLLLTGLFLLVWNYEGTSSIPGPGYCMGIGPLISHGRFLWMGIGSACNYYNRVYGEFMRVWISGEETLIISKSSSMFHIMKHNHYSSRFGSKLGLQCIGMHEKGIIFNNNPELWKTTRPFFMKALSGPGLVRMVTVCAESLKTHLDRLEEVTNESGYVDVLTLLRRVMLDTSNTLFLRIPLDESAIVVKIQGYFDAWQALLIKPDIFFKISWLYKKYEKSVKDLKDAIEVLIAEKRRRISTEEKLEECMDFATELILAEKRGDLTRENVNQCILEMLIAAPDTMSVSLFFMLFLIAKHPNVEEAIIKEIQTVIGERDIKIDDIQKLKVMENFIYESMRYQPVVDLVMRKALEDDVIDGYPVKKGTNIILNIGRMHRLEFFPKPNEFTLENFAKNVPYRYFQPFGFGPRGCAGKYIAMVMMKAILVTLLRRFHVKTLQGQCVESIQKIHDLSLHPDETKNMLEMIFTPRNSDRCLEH

Aromatase [2] = biological target: T1, Aromatase; test: Reversible inhibition of recombinant human CYP19A1 assessed as inhibition of DBF conversion to fluorescein by-product by fluorometry
Aromatase [3] = biological target: T1, Aromatase
Description: Inhibition of recombinant human CYP19A1 assessed as inhibition of DBF conversion to fluorescein by-product by fluorometry

| Compound | Ki (Aromatase [3]) [nM] | also measured |
| --- | --- | --- |
| CCOC(=O)c1nnn(Cc2ccccc2)c1-c1ccccc1 | – | Ki (Aromatase [1]): 1410 nM |
| CCOC(=O)c1nnn(Cc2ccccc2)c1-c1ccc(Br)cc1 | – | Ki (Aromatase [2]): 640 nM |
| CCOC(=O)c1nnn(Cc2cccc(Br)c2)c1-c1ccc(Br)cc1 | – | Ki (Aromatase [2]): 20 nM |
| CCOC(=O)c1nnn(Cc2ccccc2)c1-c1ccc(C)cc1 | 710 | – |
| CCOC(=O)c1nnn(Cc2ccccc2)c1-c1ccc2c(c1)OCO2 | 710 | – |
| CCOC(=O)c1nnn(Cc2ccccc2)c1-c1ccc(Cl)cc1 | 360 | – |
| CCOC(=O)c1nnn(Cc2cccc(Br)c2)c1-c1ccccc1 | 150 | – |
